According to US20090292012A1, “Therapeutic Agent” (priority 2005, published 2009):

Assays:
[1] = tested on: mouse; assay: Single oral dose toxicity in mouse; assay type: in vivo; conditions: 1 g/kg weight
Procedure: No toxicity is found even when the above-mentioned effective ingredient used in the present invention is administered in an effective dose for the exhibition of its action in a living body.

[2] = tested on: ACAT; assay: Determination of inhibitory activity for ACAT, rat liver microsome, [3H]oleoyl-CoA; assay type: biochemical; conditions: relative to 10 μM FR179254 set as 100%
Procedure: Four of Sprague-Dawley rats were bred for one week and thereafter sacrificed, and the livers were immediately excised. The excised livers were shortly washed with cold brine, and thereafter immersed (25 mL/a rat) into sucrose buffer (0.3 M sucrose, 50 mM Tris-HCl, 1 mM EDTA, 50 mM NaCl, pH 7.4). The resulting livers were homogenized, and the procedures of centrifuging at 10,000×g for 30 minutes and removing the formed precipitates were repeated twice for the homogenized livers. The resulting supernatant was centrifuged at 105,000×g for 70 minutes, and the precipitates were collected and suspended in an appropriate amount of 100 mM phosphate buffer (pH 7.4). The suspension was again suspended in the phosphate buffer so as to have a protein concentration of 10 mg/ml, and EDTA was added thereto so as to have a final concentration of 1 mM. Thereafter, the suspension was subjected to frozen storage at −80° C. until being used.
The enzymatic activity of ACAT was determined according to the partially modified method of Lee et al. (Planta Med., 2004, 70, 678-679).
In a 1.5 mL Eppendorf tube, 1 μL of a dimethyl sulfoxide solution of each subject sample was added to a 92 μL of a reaction aqueous solution (0.05 M potassium phosphate, 1 mM dithiothreitol, 9 mg/mL fatty acid-free bovine serum albumin, 200 μg/mL cholesterol, pH 7.4) containing 1.5 μL of the rat liver microsome prepared in item (1) of Example 2 so as to have a final concentration described in Table 2, and the mixture was incubated at 37° C. for 30 minutes. Here, the purified ethanol extract fraction from a leaf of Peucedanum japonicum -Fr. […] The radioactivity was determined with a liquid scintillation counter LS6500 (manufactured by Beckmann) using 150 μL of the resulting supernatant with Ultima Gold (manufactured by PerkinElmer Life Sciences Inc., 6013329) as a scintillation cocktail. […] The inhibitory activity for ACAT (%) of each of the subject samples was calculated in accordance with the following formula setting an inhibitory ratio upon addition of 10 μM FR179254 which is a positive control as 100%. […]

[3] = tested on: RAW 264.7 cells; assay: Determination of anti-foaming in macrophage (cholesterol ester accumulation with Ac-LDL); assay type: cell-based; conditions: Ac-LDL 20 μg/mL, 24 hours
Procedure: Macrophage introduces a modified LDL (such as acetyl LDL (Ac-LDL) into a cell to synthesize cholesterol ester, thereby foaming. An anti-foaming activity for the macrophage with each subject sample was determined.
RAW 264.7 cells (ATCC TIB 71) were suspended in Dulbecco's modified Eagle's medium (manufactured by Sigma, D5796) containing 10% fetal bovine serum (manufactured by Cambrex Corporation), so as to have a concentration of 4×10^5 cells/ml, and the suspension was put to each well of a 24-well microtiter plate in an amount of 1 ml per well. The cells were cultured at 37° C. overnight in the presence of 5% carbon dioxide gas. Next, the medium was exchanged with UltraCHO media (manufactured by Cambrex Corporation, B2724) and 2 μL of the dimethyl sulfoxide solution of each of the subject samples prepared in the above-mentioned Preparation Examples was added to each well so as to have a concentration shown in the following Table 1. Here, the purified ethanol extract fraction from a leaf of Peucedanum japonicum -Fr. 2-2 was used for 3′-acetoxy-4′-senecioyloxy-3′,4′-dihydroseselin in Table 1. Further, Ac-LDL (manufactured by Biomedical Technology, Inc., BT-906) at a final concentration of 20 μg/mL was added to each well, and each mixture was cultured for 24 hours. Here, there were set a group without addition of Ac-LDL and a group with addition of dimethyl sulfoxide as controls.
The total amount of cholesterol in a cell and the amount of free cholesterol were determined to calculate the amount of cholesterol ester as an index for anti-foaming for macrophage.
After the termination of the culture, the medium was removed, and the cells were washed with a 0.3% (w/v) BSA (manufactured by Sigma, A-8022) containing phosphate buffered saline and further washed with a phosphate buffered saline. The amount 0.5 mL of a solvent of hexane:isopropanol=3:2 was added to the cells. The mixture was allowed to stand at room temperature for 30 minutes, and thereafter the supernatant was collected. The procedures were repeated again, and a total of 1 mL of the supernatant was concentrated to dryness. The precipitate was dissolved in 30 μL of isopropanol, and thereafter the total amount of cholesterol contained in 10 μL of the resulting solution was determined with Cholesterol E-Test (manufactured by Wako Pure Chemical Industries, Ltd., 439-17501) and the amount of free cholesterol was determined with Free Cholesterol E-Test (manufactured by Wako Pure Chemical Industries, Ltd., 435-35801). All of the determinations were carried out twice. The amount of biosynthesis of cholesterol ester was determined by subtracting the amount of free cholesterol from the total amount of cholesterol. The anti-foaming activity was calculated in accordance with the following formula. […]

Which results are given for `CC(=O)OC1C(OC(=O)C=C(C)C)c2c(ccc3ccc(=O)oc23)OC1(C)C` (centres unmarked) [3′-acetoxy-4′-senecioyloxy-3′,4′-dihydroseselin]?
deaths after oral administration [1]: no cases of deaths are found; Inhibitory Activity for ACAT (%) ([2]; final concentration 25 μM): 40%; Inhibitory Activity for ACAT (%) ([2]; final concentration 50 μM): 65%; Inhibitory Activity for ACAT (%) ([2]; final concentration 100 μM): 87%; inhibition at 20 µM ([3]; Mus musculus, RAW264.7, final concentration 20 μM): 19%; inhibition at 40 µM ([3]; Mus musculus, RAW264.7, final concentration 40 μM): 98%; Anti-Foaming Activity (%) ([3]; final concentration 0.1 %): 34%; Anti-Foaming Activity (%) ([3]; final concentration 0.2 %): 72%
